The values below come from article PMC7477582, “Context dependent effects of ascorbic acid treatment in TET2 mutant myeloid neoplasia” (Communications Biology, 2020).

For this test, the target named is T1, TET2 catalytic domain (TET2CD) (Homo sapiens, UniProt Q6N021, DEL1481-1843).
T1 construct: GST-TET2CD (1099–1936 Del-insert), expressed in E. coli; also GST tag free TET2CD
Put plainly: SPR (Biacore […]), GST-TET2CD captured by anti-GST on CM5 chip; supported by Kd […] on 5mC-DNA-captured TET2CD and 5hmC ELISA EC50 […]. It counts as binding. Background: Surface plasmon resonance follows binding to a sensor surface in real time, without labels.

SMILES strings stand for the structures.

Take `O=C1O[C@H]([C@@H](O)CO)C(O)=C1O` [AA, Ascorbic acid]: binding was characterised by a dissociation constant (Kd) of 9.1 ± 2.3 µM.

A word on the Kd: it is the equilibrium constant for the complex coming apart.
